According to PubChem BioAssay AID651842 (Sanford-Burnham Center for Chemical Genomics, 2012):
“And” between values parts separate entries of the source, which are not always exact repeats. Identical values can stand only once. The source made the active and inactive calls.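 Rule for the calls: active = IC50 of 35 µM or lower, which flags the compound as cytotoxic and nonspecific; inactive = the rest.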

tested on: Sufu-KO-LIGHT cells viability, ATP-Lite luminescence; assay: Sufu-null reporter cell viability loss – ATP luminescence, set 1, cytotoxicity control for Gli-SUFU antagonist project, SAR follow-up (AID 651842)

SMILES	IC50
CC(C)Nc1cc(NC(=O)c2ccccc2)ncn1	> 35 µM (inactive)
O=C(Nc1cc(N2CCCCC2)ncn1)c1ccsc1	> 35 µM (inactive)
O=C(Nc1cc(N2CCCCCC2)ncn1)c1ccccc1	> 35 µM (inactive)
CCC(C)Nc1cc(NC(=O)c2ccccc2)ncn1 (centres undefined)	> 35 µM (inactive)
CN1CCN(c2cc(NC(=O)c3ccccc3)ncn2)CC1	> 35 µM (inactive)
CCCCN(C)c1cc(NC(=O)c2ccccc2)ncn1	2.89 µM
O=C(Nc1cc(N2CCOCC2)ncn1)c1ccccc1	> 35 µM (inactive)
O=C(Nc1cc(N2CCCCC2)ncn1)c1ccccc1F	> 35 µM (inactive)
N#Cc1cccc(C(=O)Nc2cc(N3CCCCC3)ncn2)c1	> 35 µM (inactive)
CC(C)(C)OC(=O)N1CCN(c2cc(NC(=O)c3ccccc3)ncn2)CC1	0.24 µM
COc1cccc(C(=O)Nc2cc(N3CCCCC3)ncn2)c1	2.28 µM
CN(C)c1cc(NC(=O)c2cccc(C#N)c2)ncn1	> 35 µM (inactive)
CCN(CC)c1cc(NC(=O)c2ccc(Br)o2)ncn1	> 35 µM (inactive)
COc1ccccc1C(=O)Nc1cc(N2CCCCC2)ncn1	> 35 µM (inactive)
O=C(Nc1cc(N2CCCC2)ncn1)c1cccc(F)c1	> 35 µM (inactive)
COc1cc(OC)cc(C(=O)Nc2cc(Nc3cccc(Cl)c3)ncn2)c1	> 35 µM (inactive)
COc1cc(OC)cc(C(=O)Nc2cc(N3CCCCC3)ncn2)c1	4.69 µM
CC1CCCCN1c1cc(NC(=O)c2ccccc2)ncn1 (centres undefined)	> 35 µM (inactive)
O=C(Nc1cc(N2CCCCC2)ncn1)c1cccs1	> 35 µM (inactive)
CN(C)c1cc(NC(=O)c2ccccc2F)ncn1	> 35 µM (inactive)
O=C(Nc1cc(N2CCCC2)ncn1)c1ccccc1	> 35 µM (inactive)
O=C(Nc1cc(N2CCCCC2)ncn1)c1ccco1	> 35 µM (inactive)
O=C(Nc1cc(N2CCCCC2)ncn1)c1ccc2ccccc2c1	2.57 µM
CCN(CC)c1cc(NC(=O)c2cc(OC)cc(OC)c2)ncn1	> 35 µM (inactive)
O=C(Nc1cc(N2CCCCC2)ncn1)c1cc2ccccc2s1	6.97 µM
O=C(Nc1cc(N2CCCCC2)ncn1)c1ccccc1Cl	> 35 µM (inactive)
O=C(Nc1cc(N2CCCCC2)ncn1)c1ccc(Cl)cc1	1.42 µM and 0.588 µM

SMILES	IC50
CC(C)(C)Nc1cc(NC(=O)c2ccccc2)ncn1	> 35 µM (inactive)
CN(C)c1cc(NC(=O)c2cccc(F)c2)ncn1	> 35 µM (inactive)
O=C(Nc1cc(N2CCSCC2)ncn1)c1ccccc1	> 35 µM (inactive)
COc1cc(OC)cc(C(=O)Nc2cc(N(C)C)ncn2)c1	> 35 µM (inactive)
O=C(Nc1cc(N2CCCCC2)ncn1)c1cccc(F)c1	> 35 µM (inactive)
CN(C)c1cc(NC(=O)c2ccccc2)ncn1	> 35 µM (inactive)
O=C(Nc1cc(NCC2CCCO2)ncn1)c1ccccc1 (centres undefined)	> 35 µM (inactive)
COc1cc(OC)cc(C(=O)Nc2cc(N3CCCC3)ncn2)c1	> 35 µM (inactive)
Cc1nc(NC(=O)c2ccccc2)cc(N2CCCCC2)n1	> 35 µM (inactive)
Cc1nc(NC(=O)c2ccccc2)cc(N(C)C)n1	> 35 µM (inactive)
CCCCNc1cc(NC(=O)c2ccccc2)ncn1	> 35 µM (inactive)
CCN(CC)c1cc(NC(=O)c2cccc(F)c2)ncn1	> 35 µM (inactive)
CC(C)CNc1cc(NC(=O)c2ccccc2)ncn1	> 35 µM (inactive)
O=C(Nc1cc(N2CCCCC2)ncn1)c1cccc2ccccc12	> 35 µM (inactive)
CCN(CC)c1cc(NC(=O)c2ccccc2F)ncn1	> 35 µM (inactive)
CC1CCN(c2cc(NC(=O)c3ccccc3)ncn2)CC1	> 35 µM (inactive)
N#Cc1ccc(C(=O)Nc2cc(N3CCCCC3)ncn2)cc1	> 35 µM (inactive)
O=C(Nc1cc(N2CCNCC2)ncn1)c1ccccc1	> 35 µM (inactive)
O=C(Nc1cc(N2CCCCC2)ncn1)c1ccccc1	> 35 µM (inactive)
O=C(Nc1cc(N2CCCCC2)ncn1)c1ccc(Br)o1	> 35 µM (inactive)
Cc1ccc(C(=O)Nc2cc(N3CCCCC3)ncn2)cc1	3.45 µM
CC(C)CNc1cc(NC(=O)c2cccc(F)c2)ncn1	> 35 µM (inactive)
CCN(CC)c1cc(NC(=O)c2ccccc2)nc(C)n1	> 35 µM (inactive)
Cc1nc(NC(=O)c2ccccc2)cc(N2CCCC2)n1	> 35 µM (inactive)
CCN(CC)c1cc(NC(=O)c2cccc(C#N)c2)ncn1	> 35 µM (inactive)
CCN(CC)c1cc(NC(=O)c2ccccc2)ncn1	> 35 µM (inactive)
O=C(Nc1cc(N2CCCC2)ncn1)c1ccccc1F	> 35 µM (inactive)
